# Experimental data: patent publication US7998987B2, “Inhibitors of c-Met and uses thereof” (Vertex Pharmaceuticals Incorporated, priority 2005, dated 2011)
# pKi: −log10 of the molar value.
# Biological target: c-Met (Homo sapiens, UniProt P08581)
# Experiment: Ki determination for the inhibition of c-Met kinase activity (standard coupled enzyme system)
# Assay type: biochemical
# Conditions: coupled enzyme system, 200 μM ATP, 80 nM c-Met, 30° C.; read-out: c-Met Ki
# Summary of the method: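 Continuous coupled-enzyme (PK/LDH, NADH depletion) assay with 80 nM c-Met, 200 μM ATP and 10 μM polyGluTyr in 100 mM HEPES pH 7.5, 10 mM MgCl2, 1.5% DMSO at 30 °C.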
# Sequence of c-Met (P08581 25-1390): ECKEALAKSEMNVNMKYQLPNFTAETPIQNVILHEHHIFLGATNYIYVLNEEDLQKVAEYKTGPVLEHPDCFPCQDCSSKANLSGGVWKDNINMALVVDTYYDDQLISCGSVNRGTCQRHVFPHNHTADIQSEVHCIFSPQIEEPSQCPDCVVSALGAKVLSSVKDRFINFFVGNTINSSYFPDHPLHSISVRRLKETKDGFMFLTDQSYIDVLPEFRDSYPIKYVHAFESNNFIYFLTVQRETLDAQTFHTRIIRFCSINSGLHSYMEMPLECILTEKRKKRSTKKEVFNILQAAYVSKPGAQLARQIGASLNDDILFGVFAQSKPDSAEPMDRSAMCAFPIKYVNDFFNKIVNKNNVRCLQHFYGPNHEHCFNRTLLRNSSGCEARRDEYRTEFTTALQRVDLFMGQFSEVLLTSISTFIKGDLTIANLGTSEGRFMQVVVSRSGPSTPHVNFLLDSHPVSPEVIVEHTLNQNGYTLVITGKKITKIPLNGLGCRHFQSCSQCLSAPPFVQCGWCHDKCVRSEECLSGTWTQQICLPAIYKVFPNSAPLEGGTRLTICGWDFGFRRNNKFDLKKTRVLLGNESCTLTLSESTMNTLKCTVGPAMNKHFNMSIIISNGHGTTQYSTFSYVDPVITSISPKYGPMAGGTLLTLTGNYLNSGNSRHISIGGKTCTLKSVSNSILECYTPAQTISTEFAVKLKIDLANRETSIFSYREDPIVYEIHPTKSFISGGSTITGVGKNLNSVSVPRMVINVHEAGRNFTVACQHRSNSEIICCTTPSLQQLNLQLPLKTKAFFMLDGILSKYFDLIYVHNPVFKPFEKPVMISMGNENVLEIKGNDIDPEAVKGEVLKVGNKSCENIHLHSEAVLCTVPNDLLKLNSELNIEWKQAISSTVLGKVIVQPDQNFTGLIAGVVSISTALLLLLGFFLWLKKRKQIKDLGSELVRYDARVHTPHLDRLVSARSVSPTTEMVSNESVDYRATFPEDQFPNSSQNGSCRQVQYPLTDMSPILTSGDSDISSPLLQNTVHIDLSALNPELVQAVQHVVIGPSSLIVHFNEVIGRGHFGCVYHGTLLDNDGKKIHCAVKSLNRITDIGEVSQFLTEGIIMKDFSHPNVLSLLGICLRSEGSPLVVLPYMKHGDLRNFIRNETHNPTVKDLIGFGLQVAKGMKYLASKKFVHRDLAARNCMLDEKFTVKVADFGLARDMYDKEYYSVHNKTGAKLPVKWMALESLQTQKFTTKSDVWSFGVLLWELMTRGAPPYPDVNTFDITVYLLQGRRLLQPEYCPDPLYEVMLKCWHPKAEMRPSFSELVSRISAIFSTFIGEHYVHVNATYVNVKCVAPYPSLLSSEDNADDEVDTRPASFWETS
row,pKi,Structure (SMILES)
1,< 5.70,N#CCc1ccc(OCc2nnc3ccc(Nc4cccc(Cl)c4)nn23)cc1 [Compound 382]
2,< 5.70,C=CCc1ccccc1OCc1nnc2ccc(Nc3cccc(Cl)c3)nn12 [Compound 383]
3,< 5.70,Clc1cccc(Nc2ccc3nnc(COc4cccc(Cl)c4)n3n2)c1 [Compound 384]
4,< 5.70,CCOc1cccc(OCc2nnc3ccc(Nc4cccc(Cl)c4)nn23)c1 [Compound 385]
5,< 5.70,Clc1cccc(Nc2ccc3nnc(CNc4ccncc4)n3n2)c1 [Compound 386]
6,< 5.70,Clc1cccc(Nc2ccc3nnc(CSc4ccccc4)n3n2)c1 [Compound 387]
7,< 5.70,Cc1cccc(SCc2nnc3ccc(Nc4cccc(Cl)c4)nn23)c1 [Compound 388]
8,< 5.70,Clc1cccc(Nc2ccc3nnc(CSc4ccccc4Cl)n3n2)c1 [Compound 389]
9,< 5.70,Fc1ccc(SCc2nnc3ccc(Nc4cccc(Cl)c4)nn23)cc1 [Compound 390]
10,5.70 to 7.00,Oc1ccc(OCc2nnc3ccc(Nc4cccc(Cl)c4)nn23)cc1 [Compound 391]
11,< 5.70,NC(=O)c1ccccc1OCc1nnc2ccc(Nc3cccc(Cl)c3)nn12 [Compound 392]
12,< 5.70,CC(C)Oc1ccc(NCc2nnc3ccc(Nc4cccc(Cl)c4)nn23)cc1 [Compound 393]
13,< 5.70,Clc1cccc(Nc2ccc3nnc(CCc4ccncc4)n3n2)c1 [Compound 394]
14,< 5.70,Clc1cccc(Nc2ccc3nnc(CCc4c[nH]cn4)n3n2)c1 [Compound 395]
15,< 5.70,CC(=O)Nc1ccc2nnc(Cc3ccc(O)cc3)n2n1 [Compound 396]
16,< 5.70,O=C(Nc1ccc2nnc(Cc3ccc(O)cc3)n2n1)c1ccccc1 [Compound 397]
17,< 5.70,O=C(Nc1ccc2nnc(Cc3ccc(O)cc3)n2n1)c1cccc(Cl)c1 [Compound 398]
18,< 5.70,O=C(Nc1ccc2nnc(Cc3ccc(O)cc3)n2n1)C1CCCCC1 [Compound 399]
19,> 7.00,Clc1cccc(Nc2ccc3nnc(C4(c5ccc6c(c5)OCO6)CC4)n3n2)c1 [Compound 400]
20,5.70 to 7.00,CC(C)(C)Nc1ccc2nnc(Cc3ccc(O)cc3)n2n1 [Compound 401]
21,> 7.00,Fc1ccc(Cc2nnc3ccc(Nc4cccc(Cl)c4)nn23)cc1 [Compound 402]
22,5.70 to 7.00,CS(=O)(=O)Nc1cccc(Cc2nnc3ccc(Nc4cccc(Cl)c4)nn23)c1 [Compound 403]

row,pKi,Structure (SMILES)
1,< 5.70,CN(C)S(=O)(=O)Nc1cccc(Cc2nnc3ccc(Nc4cccc(Cl)c4)nn23)c1 [Compound 404]
2,< 5.70,Fc1ccc(SCc2nnc3ccc(Nc4cccc(Cl)c4)nn23)c(F)c1 [Compound 405]
3,< 5.70,Oc1ccccc1SCc1nnc2ccc(Nc3cccc(Cl)c3)nn12 [Compound 406]
4,< 5.70,O=[N+]([O-])c1ncccc1OCc1nnc2ccc(Nc3cccc(Cl)c3)nn12 [Compound 408]
5,5.70 to 7.00,Oc1cccc(OCc2nnc3ccc(Nc4cccc(Cl)c4)nn23)c1 [Compound 409]
6,5.70 to 7.00,Oc1ccc(NCc2nnc3ccc(Nc4cccc(Cl)c4)nn23)cc1 [Compound 412]
7,> 7.00,Nc1ncccc1OCc1nnc2ccc(Nc3cccc(Cl)c3)nn12 [Compound 413]
8,< 5.70,Clc1cccc(Nc2ccc3nnc(CNc4ncccn4)n3n2)c1 [Compound 414]
9,< 5.70,Fc1ccc(C2(c3nnc4ccc(Nc5cccc(Cl)c5)nn34)CCCC2)cc1 [Compound 416]
10,< 5.70,CN1C2CCC1CC(Nc1ccc3nnc(Cc4ccc(O)cc4)n3n1)C2 (stereo not drawn) [Compound 417]
11,> 7.00,Clc1cccc(Nc2ccc3nnc(Cn4ccc5ncccc54)n3n2)c1 [Compound 418]
12,> 7.00,C[C@@H](c1ccc(O)cc1)c1nnc2ccc(NC3CCCCC3)nn12 [Compound 419]
13,> 7.00,C[C@@H](c1ccc(O)cc1)c1nnc2ccc(NC3CC4CCC3C4)nn12 (stereo partly drawn) [Compound 420]
14,< 5.70,CC(Cn1cnc2ccccc21)c1nnc2ccc(Nc3cccc(Cl)c3)nn12 (stereo not drawn) [Compound 421]
15,5.70 to 7.00,Oc1ccc(Cc2nnc3ccc(N4CCc5ccccc5C4)nn23)cc1 [Compound 422]
16,> 7.00,Clc1cccc(Nc2ccc3nnc(COc4ccc5cccnc5c4)n3n2)c1 [Compound 423]
17,> 7.00,Oc1ccc(Cc2nnc3ccc(Nc4ccc(F)c(Cl)c4)nn23)cc1 [Compound 424]
18,> 7.00,COc1ccc(Cc2nnc3ccc(Nc4ccc(F)c(Cl)c4)nn23)cc1 [Compound 425]
19,> 7.00,C[C@@H](c1ccc(O)cc1)c1nnc2ccc(Nc3ccc(F)c(Cl)c3)nn12 [Compound 426]
20,5.70 to 7.00,Fc1ccc(Nc2ccc3nnc(C4(c5ccc6c(c5)OCO6)CC4)n3n2)cc1Cl [Compound 427]
21,> 7.00,O=c1[nH]ccc2c1ccn2Cc1nnc2ccc(Nc3cccc(Cl)c3)nn12 [Compound 428]
22,< 5.70,Nc1cc(C(F)(F)F)ccc1OCc1nnc2ccc(Nc3cccc(Cl)c3)nn12 [Compound 429]

row,pKi,Structure (SMILES)
1,< 5.70,N#Cc1ccc(OCc2nnc3ccc(Nc4cccc(Cl)c4)nn23)c(N)c1 [Compound 430]
2,< 5.70,Cc1nc2cc(OCc3nnc4ccc(Nc5cccc(Cl)c5)nn34)ccc2s1 [Compound 431]
3,< 5.70,Nc1cc(F)ccc1OCc1nnc2ccc(Nc3cccc(Cl)c3)nn12 [Compound 432]
4,> 7.00,COC(=O)c1ccc(OCc2nnc3ccc(Nc4cccc(Cl)c4)nn23)c(N)c1 [Compound 433]
5,5.70 to 7.00,COc1ccc(OCc2nnc3ccc(Nc4cccc(Cl)c4)nn23)c(N)c1 [Compound 434]
6,< 5.70,Oc1ccc2c(ccn2Cc2nnc3ccc(Nc4cccc(Cl)c4)nn23)c1 [Compound 435]
7,5.70 to 7.00,COc1ccc(Cc2nnc3ccc(Nc4cccc(Cl)c4)nn23)cc1Br [Compound 437]
8,< 5.70,Clc1cccc(Nc2ccc3nnc(Cc4noc5ccccc45)n3n2)c1 [Compound 438]
9,5.70 to 7.00,COc1cccc(Cc2nnc3ccc(Nc4cccc(Cl)c4)nn23)c1 [Compound 439]
10,> 7.00,COc1ccc(Cc2nnc3ccc(Nc4cccc(Cl)c4)nn23)c(Cl)c1 [Compound 440]
11,< 5.70,Oc1cccc(CCc2nnc3ccc(Nc4cccc(Cl)c4)nn23)c1 [Compound 441]
12,> 7.00,COc1cc(Cc2nnc3ccc(Nc4cccc(Cl)c4)nn23)ccc1O [Compound 442]
13,5.70 to 7.00,C[C@@H](c1ccc(O)cc1)c1nnc2ccc(Nc3cc(Cl)ccc3OCCN3CCCC3)nn12 [Compound 443]
14,5.70 to 7.00,CC(=O)N[C@@H]1CCCC[C@@H]1Nc1ccc2nnc([C@@H](C)c3ccc(O)cc3)n2n1 [Compound 444]
15,< 5.70,COCCC(=O)N[C@@H]1CCCC[C@@H]1Nc1ccc2nnc([C@@H](C)c3ccc(O)cc3)n2n1 [Compound 445]
16,5.70 to 7.00,CC(=O)N[C@H]1CCCC[C@H]1Nc1ccc2nnc([C@@H](C)c3ccc(O)cc3)n2n1 [Compound 446]
17,5.70 to 7.00,COCCC(=O)N[C@H]1CCCC[C@H]1Nc1ccc2nnc([C@@H](C)c3ccc(O)cc3)n2n1 [Compound 447]
18,< 5.70,CC(=O)N[C@H]1CCCC[C@@H]1Nc1ccc2nnc([C@@H](C)c3ccc(O)cc3)n2n1 [Compound 448]
19,< 5.70,COCCC(=O)N[C@H]1CCCC[C@@H]1Nc1ccc2nnc([C@@H](C)c3ccc(O)cc3)n2n1 [Compound 449]
20,< 5.70,CC(=O)N[C@@H]1CCCC[C@H]1Nc1ccc2nnc([C@@H](C)c3ccc(O)cc3)n2n1 [Compound 450]
21,< 5.70,COCCC(=O)N[C@@H]1CCCC[C@H]1Nc1ccc2nnc([C@@H](C)c3ccc(O)cc3)n2n1 [Compound 451]
22,5.70 to 7.00,Nc1ncnc2c1ccn2Cc1nnc2ccc(Nc3cccc(Cl)c3)nn12 [Compound 452]

row,pKi,Structure (SMILES)
1,5.70 to 7.00,Fc1ccc(OCc2nnc3ccc(Nc4cccc(Cl)c4)nn23)cn1 [Compound 453]
2,< 5.70,Oc1cccc2ccc(NCc3nnc4ccc(Nc5cccc(Cl)c5)nn34)nc12 [Compound 454]
3,< 5.70,NC(=O)c1ccc(NCc2nnc3ccc(Nc4cccc(Cl)c4)nn23)nc1 [Compound 455]
4,< 5.70,Nc1ccc(Cc2nnc3ccc(Nc4cccc(Cl)c4)nn23)cc1 [Compound 456]
5,< 5.70,CN(C)c1ccc(Cc2nnc3ccc(Nc4cccc(Cl)c4)nn23)cc1 [Compound 457]
6,< 5.70,Oc1ccc2[nH]cc(Cc3nnc4ccc(Nc5cccc(Cl)c5)nn34)c2c1 [Compound 458]
7,< 5.70,Fc1ccc2[nH]cc(Cc3nnc4ccc(Nc5cccc(Cl)c5)nn34)c2c1 [Compound 459]
8,< 5.70,Clc1cccc(Nc2ccc3nnc(Cc4c[nH]c5ccccc45)n3n2)c1 [Compound 460]
9,< 5.70,O=C(O)c1cn(Cc2nnc3ccc(Nc4cccc(Cl)c4)nn23)c2ccccc12 [Compound 461]
10,< 5.70,Clc1cccc(Nc2ccc3nnc(Cn4ccc5cccnc54)n3n2)c1 [Compound 462]
11,< 5.70,Clc1cccc(Nc2ccc3nnc(Cn4ccc5cncnc54)n3n2)c1 [Compound 463]
12,< 5.70,Clc1cccc(Nc2ccc3nnc(CNc4cccc5[nH]ccc45)n3n2)c1 [Compound 464]
13,< 5.70,Clc1cccc(Nc2ccc3nnc(CNc4ccc5[nH]ccc5c4)n3n2)c1 [Compound 465]
14,< 5.70,Nc1cc(OCc2nnc3ccc(Nc4cccc(Cl)c4)nn23)c2ccccc2n1 [Compound 466]
15,5.70 to 7.00,NC(=O)c1ccc(NCc2nnc3ccc(Nc4cccc(Cl)c4)nn23)cc1 [Compound 467]
16,5.70 to 7.00,CC(=O)Nc1cccc(OCc2nnc3ccc(Nc4cccc(Cl)c4)nn23)c1 [Compound 468]
17,< 5.70,CC(=O)Nc1ccc(OCc2nnc3ccc(Nc4cccc(Cl)c4)nn23)cc1 [Compound 469]
18,5.70 to 7.00,NC(=O)c1ccc(OCc2nnc3ccc(Nc4cccc(Cl)c4)nn23)cc1 [Compound 470]
19,< 5.70,N#Cc1cccc(OCc2nnc3ccc(Nc4cccc(Cl)c4)nn23)c1 [Compound 471]
20,< 5.70,Clc1cccc(Nc2ccc3nnc(COc4ccc5nonc5c4)n3n2)c1 [Compound 472]
21,5.70 to 7.00,N#Cc1ccc(Cc2nnc3ccc(Nc4cccc(Cl)c4)nn23)cc1 [Compound 474]
